From ChEMBL document CHEMBL1201862, “PubChem BioAssay data set” (2004)
Calls of active or inactive are those of the source.

What was measured:
[1] = DRD fibroblast viability loss – cell-based, non-viral oncogenic, luminescence, dose response (AID 1934); format: functional; settings: Homo sapiens
[2] = target: T1, Microphthalmia-associated transcription factor (Homo sapiens, UniProt O75030); assay: reducers of TRPM1 reporter luminescence, concentration series – cell-based, SK-MEL-5, cherry-picked, set 3, MITF inhibitor project, dose response (AID 493073); format: functional;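 further: SK-MEL-5 melanoma cells with luciferase driven by the MITF target TRPM1 promoter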
T1 sequence (O75030 whole entry): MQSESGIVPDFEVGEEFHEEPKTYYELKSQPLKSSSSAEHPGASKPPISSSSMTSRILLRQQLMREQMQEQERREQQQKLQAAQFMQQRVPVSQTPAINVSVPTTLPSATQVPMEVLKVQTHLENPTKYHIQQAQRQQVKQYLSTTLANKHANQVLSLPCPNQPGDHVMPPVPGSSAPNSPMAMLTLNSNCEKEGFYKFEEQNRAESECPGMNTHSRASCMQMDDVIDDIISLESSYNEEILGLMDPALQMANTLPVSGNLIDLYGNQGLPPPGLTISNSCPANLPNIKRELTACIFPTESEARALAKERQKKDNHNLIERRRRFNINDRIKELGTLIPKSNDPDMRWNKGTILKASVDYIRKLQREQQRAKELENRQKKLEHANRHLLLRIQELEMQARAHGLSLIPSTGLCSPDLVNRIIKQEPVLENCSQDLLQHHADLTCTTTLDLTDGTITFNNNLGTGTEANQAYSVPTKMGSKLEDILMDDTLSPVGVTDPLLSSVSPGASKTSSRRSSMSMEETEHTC

[3] = general cell-killing toxicity readout – plate reader, dry powder samples, cytotoxicity control for PAX8 inhibitor project, dose response (AID 743021); format: functional, cell-based
[4] = tested on: BJ; assay: cells; format: functional, cell-based; settings: Homo sapiens
[5] = target: Paired box protein Pax-8 (Homo sapiens, UniProt Q06710); assay: PAX8 transcriptional activity inhibition in RMG-I – RMG-I cells, luciferase, cherry-pick, dose response (AID 687027); format: functional, cell-based;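 further: luciferase reporter driven by Pax8 target thyroperoxidase promoter measured by SteadyGlo luminescence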
[6] = (§1) Late stage assay provider results from the probe development effort to identify inhibitors of GSTO1: luminescence-based […] dose response assay to determine cytotoxicity of inhibitor compounds. [Related pubchem assays (depositor defined):AID1515, AID1974, AID2175, AID2176, AID463081, AID463098, AID463101, AID463102, AID463110, AID463142] Panel member name: Assay 1: % Surviving cells, serum-free media; format: toxicity, cell-based
[7] = target: Glutathione S-transferase omega-1 (Homo sapiens, UniProt P78417); assay: IC50 of human GSTO1 inhibition by gel ABPP – biochemical, SE-Rh probe, in-gel fluorescence, powder samples, late-stage follow-up (AID 463081); format: functional
[8] = tested on: BJ; assay: BJ-TERT fibroblast viability loss – cell-based, RAS-independent, luminescence, dose response (AID 1933); format: functional; settings: Homo sapiens
[9] = as §1, with “Assay 2:” for “Assay 1:”, “cells,” for “cells, serum-free”, “media plus FCS” for “media”; format: toxicity, cell-based
[10] = target: T2, Replicative DNA helicase DnaB (Mycobacterium tuberculosis, UniProt P9WMR3); assay: DnaB intein splicing inhibitors, dose response, biochemical, cell-free fluorescence (AID 449749); format: functional
T2 sequence (P9WMR3 whole entry): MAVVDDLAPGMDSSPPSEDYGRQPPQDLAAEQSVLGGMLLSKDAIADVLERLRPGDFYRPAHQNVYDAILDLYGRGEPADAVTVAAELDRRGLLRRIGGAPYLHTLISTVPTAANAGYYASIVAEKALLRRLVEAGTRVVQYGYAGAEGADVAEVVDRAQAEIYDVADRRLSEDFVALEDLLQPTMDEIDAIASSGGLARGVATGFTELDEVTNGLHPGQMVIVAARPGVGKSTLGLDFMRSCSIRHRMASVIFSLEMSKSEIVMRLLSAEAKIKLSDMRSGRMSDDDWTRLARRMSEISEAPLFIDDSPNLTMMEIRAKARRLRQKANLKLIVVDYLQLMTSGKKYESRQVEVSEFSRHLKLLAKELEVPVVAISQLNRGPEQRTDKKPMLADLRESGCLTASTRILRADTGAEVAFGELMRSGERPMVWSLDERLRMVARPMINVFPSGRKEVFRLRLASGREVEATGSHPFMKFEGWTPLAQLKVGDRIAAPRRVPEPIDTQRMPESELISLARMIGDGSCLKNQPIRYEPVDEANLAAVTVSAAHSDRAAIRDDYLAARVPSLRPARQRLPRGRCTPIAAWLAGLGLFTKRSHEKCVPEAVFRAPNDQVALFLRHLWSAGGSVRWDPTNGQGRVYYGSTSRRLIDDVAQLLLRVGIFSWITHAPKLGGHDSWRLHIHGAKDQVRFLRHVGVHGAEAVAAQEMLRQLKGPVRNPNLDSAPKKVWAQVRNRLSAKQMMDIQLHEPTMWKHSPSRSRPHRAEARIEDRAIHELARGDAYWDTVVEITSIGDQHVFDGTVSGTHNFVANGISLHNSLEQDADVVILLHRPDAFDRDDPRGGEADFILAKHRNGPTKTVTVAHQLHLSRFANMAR

[11] = tested on: BJ; assay: BJ-TERT-LT-ST fibroblast viability loss – cell-based, RAS-independent, luminescence, dose response (AID 1935); format: functional; settings: Homo sapiens;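 further: BJ fibroblasts immortalized with TERT plus LT and ST oncogenes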
[12] = target: T3, Protein RecA (Mycobacterium tuberculosis, UniProt P9WHJ3); assay: Fluorescence Cell-Free Homogeneous Dose Retest to Identify Inhibitors of RecA-Intein Splicing Activity. [Related pubchem assays (depositor defined):AID2097, AID2223, AID489010, AID492950]; format: functional
T3 sequence (P9WHJ3 whole entry): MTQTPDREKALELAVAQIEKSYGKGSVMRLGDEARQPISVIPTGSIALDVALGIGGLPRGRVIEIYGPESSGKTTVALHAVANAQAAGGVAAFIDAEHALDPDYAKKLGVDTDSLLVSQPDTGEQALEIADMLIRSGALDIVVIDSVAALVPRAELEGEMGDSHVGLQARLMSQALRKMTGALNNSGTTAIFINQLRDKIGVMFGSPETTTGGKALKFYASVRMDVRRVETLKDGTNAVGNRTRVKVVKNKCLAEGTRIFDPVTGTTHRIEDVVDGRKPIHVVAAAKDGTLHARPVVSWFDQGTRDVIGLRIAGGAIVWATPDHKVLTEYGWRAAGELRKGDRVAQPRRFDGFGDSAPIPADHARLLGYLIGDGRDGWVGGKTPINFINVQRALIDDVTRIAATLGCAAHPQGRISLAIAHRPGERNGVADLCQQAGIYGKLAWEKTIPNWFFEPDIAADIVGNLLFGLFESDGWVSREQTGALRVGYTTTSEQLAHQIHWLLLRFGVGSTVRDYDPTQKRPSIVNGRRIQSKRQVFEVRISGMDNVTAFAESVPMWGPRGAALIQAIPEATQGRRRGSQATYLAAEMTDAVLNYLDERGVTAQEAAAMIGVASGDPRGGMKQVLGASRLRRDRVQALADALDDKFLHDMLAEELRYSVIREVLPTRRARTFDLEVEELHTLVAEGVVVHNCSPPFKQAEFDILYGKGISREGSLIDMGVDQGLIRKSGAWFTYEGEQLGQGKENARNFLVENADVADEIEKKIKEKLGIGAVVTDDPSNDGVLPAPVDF

[13] = target: T4, Corticotropin-releasing factor receptor 2/Corticotropin-releasing factor-binding protein (Homo sapiens, UniProt P24387+Q13324); assay: activators of CRF receptor 2 with binding protein – uHTS hits, confirmation (AID 602473); format: functional; settings: read-out: EC50_Mean
T4 sequence (Q13324 whole entry): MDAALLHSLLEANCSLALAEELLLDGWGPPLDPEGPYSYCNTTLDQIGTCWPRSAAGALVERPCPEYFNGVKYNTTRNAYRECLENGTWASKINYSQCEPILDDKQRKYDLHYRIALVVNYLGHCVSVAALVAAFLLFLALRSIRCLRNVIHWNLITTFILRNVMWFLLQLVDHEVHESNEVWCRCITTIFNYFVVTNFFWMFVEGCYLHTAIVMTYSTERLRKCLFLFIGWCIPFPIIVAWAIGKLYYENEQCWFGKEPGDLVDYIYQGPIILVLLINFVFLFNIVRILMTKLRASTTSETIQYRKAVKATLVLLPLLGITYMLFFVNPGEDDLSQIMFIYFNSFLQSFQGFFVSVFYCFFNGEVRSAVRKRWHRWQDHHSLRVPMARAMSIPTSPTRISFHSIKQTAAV
T4 sequence (P24387 whole entry): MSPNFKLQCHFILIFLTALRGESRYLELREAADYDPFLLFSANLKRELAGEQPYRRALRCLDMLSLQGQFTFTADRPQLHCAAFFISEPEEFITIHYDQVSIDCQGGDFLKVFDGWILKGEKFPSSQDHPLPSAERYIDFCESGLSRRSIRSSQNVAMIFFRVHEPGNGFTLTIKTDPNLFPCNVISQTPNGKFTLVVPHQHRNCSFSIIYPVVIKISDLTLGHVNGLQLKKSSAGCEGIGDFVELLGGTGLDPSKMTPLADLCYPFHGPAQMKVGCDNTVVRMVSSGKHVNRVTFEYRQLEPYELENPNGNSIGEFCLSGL

[14] = target: T5, Coagulation factor XII (Homo sapiens, UniProt P00748); assay: Factor XIIa Dose Response Confirmation from Single Well HTS. [Related pubchem assays (depositor defined):AID701]; format: functional
T5 sequence (P00748 whole entry): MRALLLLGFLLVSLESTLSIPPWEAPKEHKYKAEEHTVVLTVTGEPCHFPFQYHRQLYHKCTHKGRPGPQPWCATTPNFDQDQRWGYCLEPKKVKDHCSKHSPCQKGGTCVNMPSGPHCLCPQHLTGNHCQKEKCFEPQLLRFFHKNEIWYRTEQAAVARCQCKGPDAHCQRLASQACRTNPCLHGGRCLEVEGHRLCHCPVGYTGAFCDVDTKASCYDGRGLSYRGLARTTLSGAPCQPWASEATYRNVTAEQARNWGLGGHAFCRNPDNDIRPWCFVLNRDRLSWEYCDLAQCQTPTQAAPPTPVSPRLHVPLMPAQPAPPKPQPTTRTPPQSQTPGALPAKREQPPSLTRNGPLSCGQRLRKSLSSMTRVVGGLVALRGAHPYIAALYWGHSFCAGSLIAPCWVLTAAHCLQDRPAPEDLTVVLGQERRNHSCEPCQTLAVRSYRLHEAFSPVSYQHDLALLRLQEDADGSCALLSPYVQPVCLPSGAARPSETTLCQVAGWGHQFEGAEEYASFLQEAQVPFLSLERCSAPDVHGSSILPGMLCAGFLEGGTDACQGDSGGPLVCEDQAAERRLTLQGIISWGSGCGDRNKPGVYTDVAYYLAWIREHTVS

[15] = target: T5, Coagulation factor XII; assay: activated coagulation factor XII inhibitor potency, concentration-effect curve, cell-free (AID 716); format: functional
[16] = target: Troponin, cardiac muscle (Homo sapiens, UniProt P19429+P45379+P63316); assay: Fluorescence-based biochemical high throughput dose response assay for activators of the calcium sensitivity of cardiac Regulated Thin Filaments (RTF). [Related pubchem assays (depositor defined):AID493008, AID493018, AID504382, AID504383]; format: protein-complex assay
[17] = target: T6, Kappa-type opioid receptor (Homo sapiens, UniProt P41145); assay: SAR analysis of Antagonists of the Kappa Opioid Receptor (KOR) using an Image-Based Assay - Set 3. [Related pubchem assays (depositor defined):AID1777, AID1785]; format: functional
[18] = target: Delta-type opioid receptor (Homo sapiens, UniProt P41143); assay: SAR Analysis of Antagonists of the DOR Receptor using an Image-Based Assay - Set 3. [Related pubchem assays (depositor defined):AID1777, AID1785]; format: functional;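 further: U2OS cells expressing DOR1 and beta-arrestin GFP stimulated with 100 nM SNC80; imaging of GFP-tagged beta-arrestin moving into spots after receptor activation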
[19] = target: Mu-type opioid receptor (Homo sapiens, UniProt P35372); assay: SAR Analysis of Antagonists of the MOR Receptor using an Image-Based Assay - Set 3. [Related pubchem assays (depositor defined):AID1777, AID1785, AID1786, AID1966, AID2133, AID2136, AID2284, AID2285, AID2420]; format: functional
[20] = target: T6, Kappa-type opioid receptor; assay: SAR analysis of small molecule antagonists of the kappa opioid receptor via a luminescent beta-arrestin assay - Set 3. [Related pubchem assays (depositor defined):AID1777, AID1778, AID1785, AID1786, AID1966, AID2133, AID2136, AID2285, AID2495]; format: functional

Structure (SMILES): COc1ccc(N(C(=O)CCl)C(C(=O)NC2CCCCC2)c2cccnc2)cc1 (stereo not given)
- EC50 [1]: 2.63 µM (inconclusive)
- AC50 [2]: 5.87 µM (active)
- AC50 [3]: 3.18 µM (active)
- EC50 [4]: 4.5 µM (active)
- AC50 [5]: 1.3 µM (active)
- CC50 [6]: > 45 µM (inactive)
- IC50 [7]: 0.067 µM (active)
- EC50 [8]: 1.01 µM (active)
- CC50 [9]: > 35 µM (inactive)
- AC50 [10]: 7.67 µM (active)
- EC50 [11]: 7.37 µM (inconclusive)
- EC50 [12]: 0.619 µM (active)

Structure (SMILES): CCn1c(C)c(C(C)=O)c(N2CCN(c3ccccc3)CC2)nc1=S
- EC50 [13]: > 53 µM (inactive)
- IC50 [14]: > 50 µM (inactive)

Structure (SMILES): NC(=O)Cn1cnc(-c2ccccc2)c1
- IC50 [15]: > 50 µM (inactive)

Structure (SMILES): O=C(COc1ccccc1F)NC1CC1
- EC50 [16]: > 71.5 µM (inactive)

Structure (SMILES): O=C(Cn1c(=O)c2cccn2c2cccnc21)NCCCN1CCOCC1
- IC50 [17]: > 32 µM (inactive)
- IC50 [18]: > 32 µM (inactive)
- IC50 [19]: > 32 µM (inactive)
- IC50 [20]: > 20 µM (inactive)
